According to patent US4839375A, “(Aryl or heteroaromatic methyl)-2,2'-bi-1H-imidazoles and their use as anti-hypertensive agents” (Merrell Dow Pharmaceuticals Inc., priority 1987, dated 1989):

What follows are molecules tested against T1, dopamine β-hydroxylase (DBH) (Bos taurus, UniProt P15101) (assay: DBH inhibition, oxygen uptake followed with a polarographic electrode and oxygen monitor). Settings: ascorbate electron donor, tyramine substrate; pH 4.5 to 5.5, preferably pH 5.0; 20° C. to 40° C., preferably 37° C.; read-out: DBH inhibitory activity, IC50 (concentration at which the reaction is inhibited by 50%).
T1 sequence (P15101 1-610): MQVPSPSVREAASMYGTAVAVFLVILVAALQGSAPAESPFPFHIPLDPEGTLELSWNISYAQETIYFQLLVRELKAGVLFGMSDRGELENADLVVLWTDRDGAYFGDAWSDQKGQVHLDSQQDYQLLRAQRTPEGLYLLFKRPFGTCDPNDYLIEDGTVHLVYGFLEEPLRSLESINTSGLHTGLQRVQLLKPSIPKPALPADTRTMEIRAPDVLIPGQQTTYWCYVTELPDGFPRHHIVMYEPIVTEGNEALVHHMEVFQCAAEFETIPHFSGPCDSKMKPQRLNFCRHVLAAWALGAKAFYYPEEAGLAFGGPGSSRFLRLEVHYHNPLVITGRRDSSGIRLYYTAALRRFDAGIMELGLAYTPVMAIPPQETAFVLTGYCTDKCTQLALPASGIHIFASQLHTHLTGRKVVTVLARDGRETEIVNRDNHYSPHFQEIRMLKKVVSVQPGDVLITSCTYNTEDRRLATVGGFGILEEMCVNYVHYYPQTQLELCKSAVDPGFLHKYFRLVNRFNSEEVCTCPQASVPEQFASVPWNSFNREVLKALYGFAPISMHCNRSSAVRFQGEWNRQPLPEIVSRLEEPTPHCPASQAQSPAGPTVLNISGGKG
Type: biochemical
Method: The DBH inhibitory properties of the compounds of this invention can readily be determined by standard and well-known procedures. For example, inhibition of DBH was determined by a procedure wherein enzymatic activity was ascertained in aqueous solution in the presence of molecular oxygen, an electron donor such as ascorbate, a substrate such as tyramine, an inhibitor, and the necessary cofactors for the enzyme at a pH of 4.5 to 5.5, preferably pH 5.0, and at a temperature of 20° C. to 40° C., preferably 37° C. The inhibitor was assayed over a range of concentrations. Each reaction was followed by measuring oxygen uptake as an indication of enzyme activity using a polarographic electrode and an oxygen monitor, following the method of S. May, et al., J. Biol. Chem., 256, 2258 (1981).

Row | IC50 [µM] | Compound
1 | 29 | c1c[nH]c(-c2nccn2Cc2ccsc2)n1 [1-(3-thienylmethyl)-2,2'-bi-1H-imidazole]
2 | 8.8 | c1c[nH]c(-c2nc(Cc3ccsc3)c[nH]2)n1 [4-(3-thienylmethyl)-2,2'-bi-1H-imidazole]
3 | 65.5 | c1csc(Cn2ccnc2-c2ncc[nH]2)c1 [1-(2-Thienylmethyl)-2,2'-bi-1H-imidazole]
